From PubChem BioAssay (NCI) come the findings set out here.

Each structure is given as a SMILES string.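 Five concentrations, 48 hours, 96-well plates. TGI: total growth inhibition.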

One test has as its system A498 renal. Kind of test: NCI tumour cell line growth inhibition, 48 h.
`CCCCCCc1cc2cc(-c3csc(CC#N)n3)c(=O)oc2cc1O` gave a TGI greater than 100 µM.

`Nn1c(-c2ccccc2)nn(C(=O)c2ccccc2)c1=O` came in with a TGI greater than 100 µM.

`COC(=O)C([C@H](NC1(c2ccccc2)c2ccccc2-c2ccccc21)C(=O)OC)N(NC(=O)OCc1ccccc1)C(=O)OCc1ccccc1` (mixture of isomers): the TGI is greater than 100 µM.

As to `O=C(NC(=O)c1ccccc1[N+](=O)[O-])Nc1ccc(Oc2ncc(Br)cn2)c(Cl)c1`, the TGI came to 0.052 µM.

As to `CC[C@@H]1CC[C@@H]2[C@H](CC[C@]3(C)[C@@H](OC(C)=O)CC[C@@H]23)[C@H]1COC(C)=O`, the TGI stood at 94.4 µM.

The compound `CN1CCc2cc(N)cc3c2C1Cc1ccc(O)c(O)c1-3` (centres undefined) registered a TGI greater than 100 µM.

Take `CC(C)=CCc1c2c(c3occ(-c4ccc(O)cc4)c(=O)c3c1O)CC(C(C)(C)O)O2` (centres undefined): the TGI is 29.6 µM.

`CC1(C)N=[N+]([O-])C1(C)C` came in with a TGI greater than 100 µM.

In turn, `COc1ccc(C2CC(c3c(O)ccc4ccccc34)=NN2C(C)=O)cc1OC` (centres undefined) had a TGI of 63.4 µM.

Compound `COc1cc2nc3n(c(=O)c2cc1OC)-c1ccc([N+](=O)[O-])cc1C3=O` displayed a TGI of 78.6 µM.

`NC(N)=N/N=C/c1c(-c2ccc(N)cc2)nc2sccn12` showed a TGI of 68.2 µM.

`COC(=O)c1c(C)cccc1C1CN=NC12Cc1ccc(C)cc1C2=O` (centres undefined) showed a TGI greater than 100 µM.

Compound `COC(=O)C1SC(SC)=NC12c1ccccc1Nc1ccccc12` (centres undefined) came in with a TGI greater than 100 µM.

`c1ccc(N=c2sc3ccccc3nc2Nc2ccccc2)cc1`: the TGI is greater than 100 µM.

For the compound `C=CC1(C)CCC2C(=CCC3C2(C)CC(O)C(O)C3(C)COC2OC(C(=O)O)C(O)C(O)C2O)C1` (centres undefined) (tested in a mixture with another compound), the TGI is greater than 100 µM.

As to `Cc1ccccc1C(=O)N1CCc2c([nH]c3ccccc23)C1`, the TGI was 51.4 µM.

Consider `O=C1CC(NC(=O)C(F)(F)F)c2c(Br)sc(N3CCNCC3)c21` (centres undefined), for which the TGI was greater than 100 µM.

For `Cc1ccc([N+](=O)[O-])cc1NC1=NCCO1`, the TGI was greater than 100 µM.

`N#CCCC1C(C#N)C2(Cl)CC1(Cl)C(Cl)=C2Cl` (centres undefined) gave a TGI greater than 10 µM.

As for `CC(C)(C)N1CSC(=S)N(Cc2ccco2)C1`, the TGI was 26.7 µM.

Consider `CN(C)C(=O)O/N=C1/C(c2c(O)[nH]c3ccccc23)=Nc2ccccc21`, for which the TGI is 18.1 µM.

Compound `COc1cc(C2c3cc4c(cc3OC(N3CCOCC3)C2C)OCO4)ccc1O` (centres undefined) displayed a TGI of 51.4 µM.

In turn, `O=C1/C(=C/c2ccccc2)N=C2Sc3c(nc[nH]c3=O)N12` displayed a TGI greater than 100 µM.

In a further test the test system is MALME-3M melanoma. Kind of test: NCI tumour cell line growth inhibition, 48 h.
Turning to `CCCCCCc1cc2cc(-c3csc(CC#N)n3)c(=O)oc2cc1O`, the TGI is greater than 100 µM.

Compound `Nn1c(-c2ccccc2)nn(C(=O)c2ccccc2)c1=O` showed a TGI greater than 100 µM.

`COC(=O)C([C@H](NC1(c2ccccc2)c2ccccc2-c2ccccc21)C(=O)OC)N(NC(=O)OCc1ccccc1)C(=O)OCc1ccccc1` (mixture of isomers) displayed a TGI greater than 100 µM.

`O=C(NC(=O)c1ccccc1[N+](=O)[O-])Nc1ccc(Oc2ncc(Br)cn2)c(Cl)c1` came in with a TGI of 0.0537 µM.

`CC[C@@H]1CC[C@@H]2[C@H](CC[C@]3(C)[C@@H](OC(C)=O)CC[C@@H]23)[C@H]1COC(C)=O`: the TGI turned out to be 35.8 µM.

`CN1CCc2cc(N)cc3c2C1Cc1ccc(O)c(O)c1-3` (centres undefined): the TGI stood at 88.2 µM.

In the case of `CC(C)=CCc1c2c(c3occ(-c4ccc(O)cc4)c(=O)c3c1O)CC(C(C)(C)O)O2` (centres undefined), the TGI stood at 36.3 µM.

As to `CC1(C)N=[N+]([O-])C1(C)C`, the TGI was greater than 100 µM.

For `COc1ccc(C2CC(c3c(O)ccc4ccccc34)=NN2C(C)=O)cc1OC` (centres undefined), the TGI worked out at 92.1 µM.

`COc1cc2nc3n(c(=O)c2cc1OC)-c1ccc([N+](=O)[O-])cc1C3=O` displayed a TGI greater than 100 µM.

For the compound `NC(N)=N/N=C/c1c(-c2ccc(N)cc2)nc2sccn12`, the TGI was greater than 100 µM.

The compound `COC(=O)c1c(C)cccc1C1CN=NC12Cc1ccc(C)cc1C2=O` (centres undefined) returned a TGI greater than 100 µM.

`COC(=O)C1SC(SC)=NC12c1ccccc1Nc1ccccc12` (centres undefined) displayed a TGI of 65.1 µM.

For `c1ccc(N=c2sc3ccccc3nc2Nc2ccccc2)cc1`, the TGI was greater than 100 µM.

In turn, `C=CC1(C)CCC2C(=CCC3C2(C)CC(O)C(O)C3(C)COC2OC(C(=O)O)C(O)C(O)C2O)C1` (centres undefined) (tested in a mixture with another compound) registered a TGI greater than 100 µM.

Consider `Cc1ccccc1C(=O)N1CCc2c([nH]c3ccccc23)C1`, for which the TGI was determined as 81.5 µM.

The compound `O=C1CC(NC(=O)C(F)(F)F)c2c(Br)sc(N3CCNCC3)c21` (centres undefined) registered a TGI greater than 100 µM.

Compound `Cc1ccc([N+](=O)[O-])cc1NC1=NCCO1` had a TGI greater than 100 µM.

In turn, `N#CCCC1C(C#N)C2(Cl)CC1(Cl)C(Cl)=C2Cl` (centres undefined) registered a TGI greater than 10 µM.

`CC(C)(C)N1CSC(=S)N(Cc2ccco2)C1` showed a TGI of 16.6 µM.

`CN(C)C(=O)O/N=C1/C(c2c(O)[nH]c3ccccc23)=Nc2ccccc21` yielded a TGI of 30 µM.

For `COc1cc(C2c3cc4c(cc3OC(N3CCOCC3)C2C)OCO4)ccc1O` (centres undefined), the TGI was greater than 100 µM.

`O=C1/C(=C/c2ccccc2)N=C2Sc3c(nc[nH]c3=O)N12` displayed a TGI greater than 100 µM.

The test system of another test is HS 578T breast. Put plainly: NCI tumour cell line growth inhibition, 48 h.
As for `CCCCCCc1cc2cc(-c3csc(CC#N)n3)c(=O)oc2cc1O`, the TGI is greater than 100 µM.

`Nn1c(-c2ccccc2)nn(C(=O)c2ccccc2)c1=O` gave a TGI greater than 100 µM.

Compound `COC(=O)C([C@H](NC1(c2ccccc2)c2ccccc2-c2ccccc21)C(=O)OC)N(NC(=O)OCc1ccccc1)C(=O)OCc1ccccc1` (mixture of isomers) came in with a TGI greater than 100 µM.

`O=C(NC(=O)c1ccccc1[N+](=O)[O-])Nc1ccc(Oc2ncc(Br)cn2)c(Cl)c1` showed a TGI of 0.0934 µM.

In turn, `CC[C@@H]1CC[C@@H]2[C@H](CC[C@]3(C)[C@@H](OC(C)=O)CC[C@@H]23)[C@H]1COC(C)=O` gave a TGI greater than 100 µM.

With `CN1CCc2cc(N)cc3c2C1Cc1ccc(O)c(O)c1-3` (centres undefined), the TGI was greater than 100 µM.

For `CC(C)=CCc1c2c(c3occ(-c4ccc(O)cc4)c(=O)c3c1O)CC(C(C)(C)O)O2` (centres undefined), the TGI stood at 69.5 µM.

In turn, `CC1(C)N=[N+]([O-])C1(C)C` yielded a TGI greater than 100 µM.

Consider `COc1ccc(C2CC(c3c(O)ccc4ccccc34)=NN2C(C)=O)cc1OC` (centres undefined), for which the TGI was greater than 100 µM.

The compound `COc1cc2nc3n(c(=O)c2cc1OC)-c1ccc([N+](=O)[O-])cc1C3=O` showed a TGI greater than 100 µM.

Compound `NC(N)=N/N=C/c1c(-c2ccc(N)cc2)nc2sccn12` had a TGI greater than 100 µM.

Compound `COC(=O)c1c(C)cccc1C1CN=NC12Cc1ccc(C)cc1C2=O` (centres undefined) displayed a TGI greater than 100 µM.

`COC(=O)C1SC(SC)=NC12c1ccccc1Nc1ccccc12` (centres undefined) showed a TGI greater than 100 µM.

The compound `c1ccc(N=c2sc3ccccc3nc2Nc2ccccc2)cc1` yielded a TGI greater than 100 µM.

Regarding `C=CC1(C)CCC2C(=CCC3C2(C)CC(O)C(O)C3(C)COC2OC(C(=O)O)C(O)C(O)C2O)C1` (centres undefined) (tested in a mixture with another compound), the TGI is greater than 100 µM.

As for `Cc1ccccc1C(=O)N1CCc2c([nH]c3ccccc23)C1`, the TGI is 84.8 µM.

The compound `O=C1CC(NC(=O)C(F)(F)F)c2c(Br)sc(N3CCNCC3)c21` (centres undefined) showed a TGI greater than 100 µM.

Regarding `Cc1ccc([N+](=O)[O-])cc1NC1=NCCO1`, the TGI was greater than 100 µM.

On to `N#CCCC1C(C#N)C2(Cl)CC1(Cl)C(Cl)=C2Cl` (centres undefined), for which the TGI is greater than 10 µM.

`CC(C)(C)N1CSC(=S)N(Cc2ccco2)C1`: the TGI worked out at 26.1 µM.

Compound `CN(C)C(=O)O/N=C1/C(c2c(O)[nH]c3ccccc23)=Nc2ccccc21` showed a TGI of 40.2 µM.

Compound `COc1cc(C2c3cc4c(cc3OC(N3CCOCC3)C2C)OCO4)ccc1O` (centres undefined) displayed a TGI of 41.9 µM.

In the case of `O=C1/C(=C/c2ccccc2)N=C2Sc3c(nc[nH]c3=O)N12`, the TGI was greater than 100 µM.
